# Laboratory results from patent US8470525B2, “Method for analyzing air” (priority 2011, dated 2013).
# How the values were obtained:
# Assay type in all cases: biochemical
# [1] = target: T1, acetylcholinesterase enzyme (Homo sapiens, UniProt P22303); test: Enzyme-based air monitoring device: detection of cholinesterase inhibitor in air by loss of acetylcholinesterase/indoxyl acetate fluorescence signal; conditions: Example 4, FIG. 8: aerosol from 2.5 ppm paraoxon solution; 4 minute cycles; polyethylene disk 15-45 um; clean-air cycle around 14,000
# T1 sequence (P22303 32-614, species assumed): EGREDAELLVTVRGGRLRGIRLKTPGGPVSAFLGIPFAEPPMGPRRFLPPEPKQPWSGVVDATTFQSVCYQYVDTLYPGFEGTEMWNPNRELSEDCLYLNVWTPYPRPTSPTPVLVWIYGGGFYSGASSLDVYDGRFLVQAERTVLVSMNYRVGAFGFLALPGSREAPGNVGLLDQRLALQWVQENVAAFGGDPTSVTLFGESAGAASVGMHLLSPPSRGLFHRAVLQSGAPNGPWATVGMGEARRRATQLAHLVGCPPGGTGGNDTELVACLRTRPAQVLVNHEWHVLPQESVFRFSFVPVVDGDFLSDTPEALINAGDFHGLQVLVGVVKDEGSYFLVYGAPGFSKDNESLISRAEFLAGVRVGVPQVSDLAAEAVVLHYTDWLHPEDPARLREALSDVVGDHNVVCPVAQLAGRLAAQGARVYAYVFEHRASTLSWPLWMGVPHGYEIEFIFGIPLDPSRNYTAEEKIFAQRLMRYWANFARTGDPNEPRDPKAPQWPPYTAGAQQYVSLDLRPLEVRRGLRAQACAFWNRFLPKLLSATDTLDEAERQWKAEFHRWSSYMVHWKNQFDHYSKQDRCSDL
# Procedure: In this embodiment of the invention, the device and method operates in repetitive cycles ranging from 30 seconds to 10 minutes. […] The cycle shown in FIG. 2 took 5 minutes for completion. The enzyme and substrate addition took 5 seconds, the sampling time took 115 seconds, the reading took 85 seconds and was concluded by the alarm status update at the end which requires only a fraction of a second, and the rinse took 90 seconds. Each cycle concludes with the rinse step where components of the reaction are rinsed off the surface of the collection matrix and preferably from the reaction zone and the surface of the collection matrix, in order to set the stage for a new sampling cycle.
# FIGS. 3a and 3b illustrate the steps of one 5 minute cycle with no detection event in more detail. […] Particles, aerosols and vapor from the environment are collected on the impactor disk or surface of the collection matrix. During this step one nebulizer is activated adding aerosolized enzyme visualized in FIGS. 3a and 3b by clam shaped symbols. The enzyme is being accumulated on the impactor disk/surface of the collection matrix. […] During the next step 4) 85 seconds reading, the catalytic reaction of the enzyme substrate complex is monitored with an optical system. […] During the reading period, the air sampling pump is typically switched off. […]
# [2] = target: T1, acetylcholinesterase enzyme; test: Air monitoring device: detection of aerosolized enzymatic substrate by fluorescence after enzyme addition; conditions: Example 7, FIG. 11: indoxyl acetate solution 0.1 mg/ml aerosolized; 4 minute cycles; cycles three and four; clean air amplitude 500
# Procedure: Example 7 provides a method of this invention to detect other chemicals in the air. The device in this example was operated continuously in 4 minute cycles. Each cycle consists of a 2 minute second sampling period at a flow rate of 1 liter per minute, 5 second enzyme addition step, a 85 second reading period and a 30 second rinse step. The consumables/reagents consisted of a) 3 mg/ml acetylcholinesterase enzyme solution in buffer and b) 100 mM buffer at pH 7.0. This example used a polyethylene disk with a pore size of 15-45 um and a thickness of 1.6 mm as the impactor disk. The enzyme aerosol was generated using 5×500 ms pulses every second for 5 seconds total. The rinse step at conclusion of the cycle was accomplished by continuously aerosolizing buffer for about 30 seconds.
# Specifically, indoxyl acetate solution was aerosolized into a plastic test chamber at a concentration of 0.1 mg/ml. […] The device indicated the presence of the target protein by an amplitude increase to at least 3,000 fluorescent units in cycles three and four compared to an amplitude of 500 in cycles one and two during the time clean air was sampled.
# [3] = Air monitoring device: detection of aerosolized enzyme protein by fluorescence from indoxyl acetate substrate; conditions: Example 6, FIG. 10: enzyme solution 3 mg/ml aerosolized; 3 minute cycles; cycles four, five and six; clean air amplitude 0
# Procedure: Example 6 provides a method of this invention for the detection of a protein in the air. The device in this example was operated continuously in 3 minute cycles. Each cycle consists of a 30 second sampling period at a flow rate of 1 liter per minute, a 5 second substrate addition step, a 85 second reading period and a 60 second rinse step. The consumables/reagents consisted of a) 12.5 mg/ml indoxyl acetate substrate solution in isopropyl alcohol (IPA), diluted in buffer 100 fold and b) 100 mM buffer at pH 7.0. This example used a polyethylene disk with a pore size of 15-45 um and a thickness of 1.6 mm as the impactor disk. The substrate aerosol was generated using 5×500 ms pulses every second for 5 seconds total. The rinse step at conclusion of the cycle was accomplished by continuously aerosolizing buffer for about 60 seconds.
# Specifically, acetylcholinesterase enzyme solution was aerosolized into a plastic test chamber at a concentration of 3 mg/ml. The sampled air was contaminated with enzyme two times at intervals indicated by solid triangles (beginning) and white triangles (end). As set forth in FIG. 10, the device indicated the presence of the target protein by an amplitude increase to at least 2,000 fluorescent units in cycles four, five and six compared to an amplitude of 0 in cycles one, two and three during the time clean air was sampled.
compound,measurement,setting,value
CCOP(=O)(OCC)Oc1ccc([N+](=O)[O-])cc1 [paraoxon],signal amplitude,[1],"around 4,000 fluorescent units"
indoxyl acetate,amplitude increase,[2],"at least 3,000 fluorescent units"
acetylcholinesterase,amplitude increase,[3],"at least 2,000 fluorescent units"
